Molecular target: T1, human SARM1(50-724) (Homo sapiens, UniProt Q6SZW1)
T1 construct: 40 nM human SARM1(50-724)
T1 sequence (Q6SZW1 50-724): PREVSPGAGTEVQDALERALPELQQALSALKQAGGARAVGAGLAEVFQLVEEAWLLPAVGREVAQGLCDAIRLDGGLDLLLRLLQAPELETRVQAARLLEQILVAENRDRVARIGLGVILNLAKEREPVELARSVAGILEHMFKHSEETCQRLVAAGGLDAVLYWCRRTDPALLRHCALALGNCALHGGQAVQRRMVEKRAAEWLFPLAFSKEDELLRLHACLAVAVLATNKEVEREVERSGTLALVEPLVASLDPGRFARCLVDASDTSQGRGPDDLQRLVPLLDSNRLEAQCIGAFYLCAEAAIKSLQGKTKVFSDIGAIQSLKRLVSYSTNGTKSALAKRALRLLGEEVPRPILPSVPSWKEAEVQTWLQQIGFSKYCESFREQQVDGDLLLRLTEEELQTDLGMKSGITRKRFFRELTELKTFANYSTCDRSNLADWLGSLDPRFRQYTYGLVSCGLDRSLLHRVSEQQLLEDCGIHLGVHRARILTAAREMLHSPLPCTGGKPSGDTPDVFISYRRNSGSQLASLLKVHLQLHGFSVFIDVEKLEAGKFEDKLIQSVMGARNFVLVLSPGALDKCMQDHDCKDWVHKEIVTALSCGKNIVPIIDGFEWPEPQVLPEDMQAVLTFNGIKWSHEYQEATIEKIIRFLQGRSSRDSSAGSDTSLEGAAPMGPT
Experiment: SARM1 NADase biochemical assay (HPLC of NAD and NAM)
Settings: 40 nM human SARM1(50-724), 0.3 mM NMN, 20 μM NAD, 60 minutes room temperature; dose-response from 100 μM, 1:3 dilution
Experimental: Each reaction was run at a volume of 20 μL containing 50 μM compound (dissolved in DMSO; final concentration of DMSO is 1% v/v), 40 nM human SARM1(50-724), 0.3 mM NMN, 20 μM NAD, 1 mM TCEP, 25 mM HEPES pH 7.4, 10 mM KCl and 10 mM MgCl2. The reaction was incubated at room temperature for 60 minutes and quenched with 20 μL of 0.4% formic acid. The samples were run on Agilent HPLC 1260 Infinity II with Synergi 2.5 μM Fusion-RP 100 Å (100×3.0 mm) LC column from Phenomenex. Total run time for each sample was 4 minutes. The run was isocratic with 1.5% methanol in 40 mM ammonium acetate pH 6.0. Samples were run at a flow rate of 0.8 mL/min at 55° C. Peak areas of NAD and NAM were determined using OpenLAB CDS (Chem Station edition) software. For dose-response, the compound was diluted serially 1:3 in DMSO and added to the reaction starting at a final compound concentration of 100 μM in 1% DMSO.

Row | SMILES | IC50
1 | Cc1cnccc1-n1cc(NC(=O)CCc2ccc(Cl)cc2)cn1 [Example 109, 3-(4-Chlorophenyl)-N-(1-(3-methylpyridin-4-yl)-1H-pyrazol-4-yl)propanamide] | 1000 to 10000 nM
2 | O=C(CCc1cc(F)c(Cl)c(F)c1)Nc1[nH]nc(-c2ccncc2)c1Cl [Example 97, 3-(4-Chloro-3,5-difluorophenyl)-N-(4-chloro-3-(pyridin-4-yl)-1H-pyrazol-5-yl)propanamide] | < 1000 nM
3 | Cc1c(NC(=O)CCc2ccc(Cl)cc2)cnn1-c1ccncc1 [Example 86] | < 1000 nM
4 | O=C1CC(Cc2ccc(Cl)cc2)C(=O)N1c1cc(-c2ccncc2)n[nH]1 (racemic) [Example 156, (rac)-3-(4-Chlorobenzyl)-1-(3-(pyridin-4-yl)-1H-pyrazol-5-yl)pyrrolidine-2,5-dione] | < 1000 nM
5 | O=C(CCc1cccc(Cl)c1)Nc1cc(-c2ccncc2)n[nH]1 [Example 100, 3-(3-Chlorophenyl)-N-(3-(pyridin-4-yl)-1H-pyrazol-5-yl)propanamide] | 1000 to 10000 nM
6 | Cc1c(-c2ccncc2)n[nH]c1N(C(=O)CCc1ccc(Cl)cc1)C(=O)C(C)C [Example 12, 3-(4-Chlorophenyl)-N-isobutyryl-N-(4-methyl-3-(pyridin-4-yl)-1H-pyrazol-5-yl)propanamide] | 1000 to 10000 nM
7 | Cn1c(-c2ccncc2)cnc1NC(=O)CCc1ccc(Cl)cc1 [Example 132] | 1000 to 10000 nM
8 | Cc1c(-c2ccncc2)n[nH]c1NC(=O)CCc1cc(F)c(F)cc1F [Example 52, N-(4-Methyl-3-(pyridin-4-yl)-1H-pyrazol-5-yl)-3-(2,4,5-trifluorophenyl)propanamide] | < 1000 nM
9 | CN(C(=O)CCc1ccc(Cl)cc1)c1cnn(-c2ccncc2)c1 [Example 134, 3-(4-Chlorophenyl)-N-methyl-N-(1-(pyridin-4-yl)-1H-pyrazol-4-yl)propanamide] | 1000 to 10000 nM
10 | Cc1c(-c2ccncc2)n[nH]c1NC(=O)CCc1c(F)c(F)c(F)c(F)c1F [Example 58, N-(4-Methyl-3-(pyridin-4-yl)-1H-pyrazol-5-yl)-3-(perfluorophenyl)propanamide] | < 1000 nM
11 | Cc1c(-c2ccncc2)n[nH]c1NC(=O)CCc1ccc(CF)cc1 [Example 56, 3-(4-(Fluoromethyl)phenyl)-N-(4-methyl-3-(pyridin-4-yl)-1H-pyrazol-5-yl)propanamide] | < 1000 nM
12 | Cc1c(N2C(=O)[C@H](Cc3ccc(Cl)cc3)NC2(C)C)cnn1-c1ccncc1 [Example 152, (S)-5-(4-Chlorobenzyl)-2,2-dimethyl-3-(5-methyl-1-(pyridin-4-yl)-1H-pyrazol-4-yl)imidazolidin-4-one] | 1000 to 10000 nM
13 | Cc1c(-c2ccncc2)n[nH]c1NC(=O)CCc1ccccc1 [Example 22, N-(4-Methyl-3-(pyridin-4-yl)-1H-pyrazol-5-yl)-3-phenylpropanamide] | 1000 to 10000 nM
14 | Cc1c(-c2ccncc2)n[nH]c1NC(=O)CCc1ccc(C(F)F)cc1 [Example 57, 3-(4-(Difluoromethyl)phenyl)-N-(4-methyl-3-(pyridin-4-yl)-1H-pyrazol-5-yl)propanamide] | < 1000 nM
15 | Cc1nn(-c2ccncc2)cc1NC(=O)CCc1ccc(Cl)cc1 [Example 107] | 1000 to 10000 nM
16 | Cc1c(-c2ccncc2)n[nH]c1NC(=O)CCc1ccc(Cl)c(F)c1F [Example 49, 3-(4-Chloro-2,3-difluorophenyl)-N-(4-methyl-3-(pyridin-4-yl)-1H-pyrazol-5-yl)propanamide] | < 1000 nM

The remaining lines, values ahead:

Row | IC50 | SMILES
17 | < 1000 nM | Cc1c(-c2ccncc2)n[nH]c1N(C(=O)CCc1ccc(Cl)cc1)C(=O)CCc1cccc(Cl)c1 [Example 4, 3-(3-Chlorophenyl)-N-(3-(4-chlorophenyl)propanoyl)-N-(4-methyl-3-(pyridin-4-yl)-1H-pyrazol-5-yl)propanamide]
18 | 1000 to 10000 nM | COc1ccc(CCC(=O)Nc2[nH]nc(-c3ccncc3)c2C)cc1 [Example 27, 3-(4-Methoxyphenyl)-N-(4-methyl-3-(pyridin-4-yl)-1H-pyrazol-5-yl)propanamide]
19 | 1000 to 10000 nM | Cc1c(-c2ccncc2)n[nH]c1N1C(=O)CC(c2ccc(Cl)cc2)CC1=O (racemic) [Example 157, (rac)-4-(4-Chlorophenyl)-1-(4-methyl-3-(pyridin-4-yl)-1H-pyrazol-5-yl)piperidine-2,6-dione]
20 | 1000 to 10000 nM | CCC(=O)N(C(=O)CCc1ccc(Cl)cc1)c1[nH]nc(-c2ccncc2)c1C [Example 2, 3-(4-Chlorophenyl)-N-(4-methyl-3-(pyridin-4-yl)-1H-pyrazol-5-yl)-N-propionylproanamide]
21 | < 1000 nM | Cc1c(-c2ccncc2)n[nH]c1NC(=O)OCc1ccc(Cl)cc1 [Example 130, 4-Chlorobenzyl (4-methyl-3-(pyridin-4-yl)-1H-pyrazol-5-yl)carbamate]
22 | < 1000 nM | O=C(CCc1cc(F)c(Cl)c(F)c1)Nc1cc(-c2ccncc2)n[nH]1 [Example 101, 3-(4-Chloro-3,5-difluorophenyl)-N-(3-(pyridin-4-yl)-1H-pyrazol-5-yl)propanamide]
23 | < 1000 nM | O=C(CCc1cc(F)c(Cl)c(F)c1)Nc1cnn(-c2ccncc2)c1 [Example 88, 3-(4-Chloro-3,5-difluorophenyl)-N-[1-(pyridin-4-yl)-1H-pyrazol-4-yl]propanamide]
24 | < 1000 nM | Cc1c(-c2ccncc2)n[nH]c1N(C(=O)CCc1ccc(Cl)cc1)S(C)(=O)=O [Example 11, 3-(4-Chlorophenyl)-N-(4-methyl-3-(pyridin-4-yl)-1H-pyrazol-5-yl)-N-(methylsulfonyl)propanamide]
25 | < 1000 nM | Cc1c(-c2ccncc2)n[nH]c1N(C(=O)CCc1ccc(Cl)cc1)C(=O)CCc1ccccc1Cl [Example 5, 3-(2-Chlorophenyl)-N-(3-(4-chlorophenyl)propanoyl)-N-(4-methyl-3-(pyridin-4-yl)-1H-pyrazol-5-yl)propanamide]
26 | < 1000 nM | Cc1c(-c2ccncc2)n[nH]c1NC(=O)CCc1ccc(C#N)c(F)c1 [Example 53, 3-(4-Cyano-3-fluorophenyl)-N-(4-methyl-3-(pyridin-4-yl)-1H-pyrazol-5-yl)propanamide]
27 | < 1000 nM | Cc1c(-c2ccncc2)n[nH]c1NC(=O)CCc1cnc(Cl)nc1 [Example 61, 3-(2-Chloropyrimidin-5-yl)-N-(4-methyl-3-(pyridin-4-yl)-1H-pyrazol-5-yl)propanamide]
28 | < 1000 nM | Cc1c(-c2ccncc2)n[nH]c1N(C(=O)CCc1ccccc1)C(=O)CCc1ccc(Cl)cc1 [Example 6, 3-(4-Chlorophenyl)-N-(4-methyl-3-(pyridin-4-yl)-1H-pyrazol-5-yl)-N-(3-phenylpropanoyl)propanamide]
29 | 1000 to 10000 nM | Cc1c(NC(=O)OCc2ccc(Cl)s2)cnn1-c1ccncc1 [Example 149, (5-Chlorothiophen-2-yl)methyl (5-methyl-1-(pyridin-4-yl)-1H-pyrazol-4-yl)carbamate]
30 | 1000 to 10000 nM | O=C(CCc1ccc(F)cc1)Nc1cnn(-c2ccncc2)c1 [Example 115]
31 | < 1000 nM | O=C(CCc1cc(F)c(Cl)c(F)c1)Nc1cnn(-c2ccncc2)c1Br [Example 127, N-[5-Bromo-1-(pyridin-4-yl)-1H-pyrazol-4-yl]-3-(4-chloro-3,5-difluorophenyl)propanamide]
32 | < 1000 nM | N#Cc1c(F)cc(CC2CCN(c3cc(-c4ccncc4)n[nH]3)C2=O)cc1F (stereo not drawn) [Example 146, 2,6-Difluoro-4-((2-oxo-1-(3-(pyridin-4-yl)-1H-pyrazol-5-yl)pyrrolidin-3-yl)methyl)benzonitrile]
33 | < 1000 nM | Cc1c(-c2ccncc2)n[nH]c1NC(=O)COc1ccc(Cl)cc1 [Example 62, 2-(4-Chlorophenoxy)-N-(4-methyl-3-(pyridin-4-yl)-1H-pyrazol-5-yl)acetamide]
34 | < 1000 nM | CCc1c(-c2ccncc2)n[nH]c1NC(=O)CCc1ccc(C#N)c(F)c1 [Example 16, 3-(4-Cyano-3-fluorophenyl)-N-(4-ethyl-3-(pyridin-4-yl)-1H-pyrazol-5-yl)propanamide]
35 | < 1000 nM | Cc1cnccc1-c1n[nH]c(NC(=O)CCc2cc(F)c(Cl)c(F)c2)c1C [Example 111, 3-(4-Chloro-3,5-difluorophenyl)-N-(4-methyl-3-(3-methylpyridin-4-yl)-1H-pyrazol-5-yl)propanamide]
36 | < 1000 nM | Cc1c(-c2ccncc2)n[nH]c1NC(=O)CCc1ccc(Cl)cc1 [Example 19, 3-(4-Chlorophenyl)-N-(4-methyl-3-(pyridin-4-yl)-1H-pyrazol-5-yl)propanamide]

Source: patent US12404265B2, “Substituted pyridine derivatives as SARM1 inhibitors” (Nura Bio, Inc., priority 2020, dated 2025)
